We go through two compounds from US7115759B2, “Conjugated linoleic acid compositions” (Natural ASA, priority 2002, dated 2006).

Series [1] is described as follows: Peroxide value (PV) by chlorimetric ferric thiocyanate method after storage. The class given is physicochemical. Conditions: after storage in open glass; spectrophotometric ferric thiocyanate method; unit assumed. The text has this:
The present invention also contemplates stabilization of CLA containing compounds, including but not limited to, CLA, esters of CLA, and triglycerides of CLA by preventing oxidation of the compounds. The present invention is not limited to any one mechanism. Indeed, an understanding of the mechanism of the invention is not necessary to produce the composition or perform the methods of the present invention. […] After storage in open glass, the PV of CLA was 32; in comparison, the value for linoleic acid was 370.

The conditions of series [2]: diets containing 0.5 percent CLA; pigs, mice, humans; U.S. Pat. No. 5,554,646; cited from earlier work.
Series [3] deals with human melanoma, colorectal and breast cancer cells. Conditions: in vitro; cited from earlier work.
Series [4] concerns rat mammary tumorigenesis. Conditions: administration of CLA; Birt et al. 1992; cited from earlier work.

Compound conjugated linoleic acid [CLA] showed a peroxide value (PV) in series [1] of 32 meq/kg. Moreover, in series [2], the fat content result is “significant drop in fat content”. The cytotoxicity entry in series [3] is “strong cytotoxic agent”. Also, the rat mammary tumorigenesis result in series [4] is recorded as “inhibits rat mammary tumorigenesis”.

Compound `CCCCC/C=C\C/C=C\CCCCCCCC(=O)O` [linoleic acid] gave a peroxide value (PV) in series [1] of 370 meq/kg.
